The results in this text go back to ChEMBL document CHEMBL1154311, “Isolation of the protein tyrosine phosphatase 1B inhibitory metabolite from the marine-derived fungus Cosmospora sp. SF-5060” (Bioorg Med Chem Lett, 2009).

For assay [1], the target named is T1, Tyrosine-protein phosphatase non-receptor type 1 (Homo sapiens, UniProt P18031).
T1 sequence (P18031 whole entry): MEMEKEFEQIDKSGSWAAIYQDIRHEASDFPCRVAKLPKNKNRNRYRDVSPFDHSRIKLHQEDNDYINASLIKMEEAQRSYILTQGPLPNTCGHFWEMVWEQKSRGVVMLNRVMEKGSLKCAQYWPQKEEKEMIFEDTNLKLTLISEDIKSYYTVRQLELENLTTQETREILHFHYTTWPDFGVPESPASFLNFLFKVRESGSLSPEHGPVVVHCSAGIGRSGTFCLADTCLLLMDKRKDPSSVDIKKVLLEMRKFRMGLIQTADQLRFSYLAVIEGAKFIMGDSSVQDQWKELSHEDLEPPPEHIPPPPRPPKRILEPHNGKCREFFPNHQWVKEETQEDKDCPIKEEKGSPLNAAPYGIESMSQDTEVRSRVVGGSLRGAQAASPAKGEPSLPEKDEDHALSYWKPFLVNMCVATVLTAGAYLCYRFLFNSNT
The assay is described as follows: Inhibition of PTP1B mediated pNPP hydrolysis.

In assay [2] the target is T2, Tyrosine-protein phosphatase non-receptor type 1 (Homo sapiens) (UniProt P18031).
T2 sequence (whole entry): T1 sequence (P18031 whole entry)
The assay is described as follows: Inhibition of PTP1B mediated pNPP hydrolysis at 178 uM.

Assay [3] addresses T3, Receptor-type tyrosine-protein phosphatase C (Homo sapiens, UniProt P08575).
T3 sequence (P08575 whole entry): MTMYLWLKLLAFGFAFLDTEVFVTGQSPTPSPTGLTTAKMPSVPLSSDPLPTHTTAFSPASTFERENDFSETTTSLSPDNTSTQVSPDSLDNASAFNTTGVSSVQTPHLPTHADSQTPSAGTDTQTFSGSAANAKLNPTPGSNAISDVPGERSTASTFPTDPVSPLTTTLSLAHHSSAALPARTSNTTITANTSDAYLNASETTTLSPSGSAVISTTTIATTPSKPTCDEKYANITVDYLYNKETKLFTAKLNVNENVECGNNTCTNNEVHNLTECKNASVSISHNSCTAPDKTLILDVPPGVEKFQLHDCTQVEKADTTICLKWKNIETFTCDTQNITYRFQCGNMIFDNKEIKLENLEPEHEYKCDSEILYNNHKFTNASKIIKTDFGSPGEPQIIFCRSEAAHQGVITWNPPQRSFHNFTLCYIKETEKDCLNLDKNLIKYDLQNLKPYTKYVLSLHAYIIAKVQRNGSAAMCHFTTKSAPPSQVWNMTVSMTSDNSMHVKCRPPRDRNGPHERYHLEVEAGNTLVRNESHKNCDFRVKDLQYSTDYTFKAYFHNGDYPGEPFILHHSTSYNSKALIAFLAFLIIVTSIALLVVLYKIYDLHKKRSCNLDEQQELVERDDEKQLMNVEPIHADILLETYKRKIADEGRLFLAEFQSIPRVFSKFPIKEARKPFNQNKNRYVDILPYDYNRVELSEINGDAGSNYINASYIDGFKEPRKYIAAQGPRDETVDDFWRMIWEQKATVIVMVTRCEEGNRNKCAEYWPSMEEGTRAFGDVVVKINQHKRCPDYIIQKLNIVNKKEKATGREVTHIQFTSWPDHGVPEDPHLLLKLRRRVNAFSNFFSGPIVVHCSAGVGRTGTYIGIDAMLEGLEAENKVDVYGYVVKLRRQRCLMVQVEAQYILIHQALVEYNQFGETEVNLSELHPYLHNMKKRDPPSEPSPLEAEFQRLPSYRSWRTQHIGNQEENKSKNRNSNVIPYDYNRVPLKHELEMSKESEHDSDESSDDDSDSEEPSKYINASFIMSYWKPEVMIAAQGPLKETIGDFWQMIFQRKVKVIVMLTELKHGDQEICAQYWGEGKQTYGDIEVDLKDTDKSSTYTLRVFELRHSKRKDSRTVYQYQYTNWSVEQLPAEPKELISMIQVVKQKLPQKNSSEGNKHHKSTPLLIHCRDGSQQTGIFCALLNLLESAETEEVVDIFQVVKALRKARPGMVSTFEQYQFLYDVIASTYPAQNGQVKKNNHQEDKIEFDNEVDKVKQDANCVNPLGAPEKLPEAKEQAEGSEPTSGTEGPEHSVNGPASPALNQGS
The assay is described as follows: Inhibition of CD45.

In assay [4] the target is Receptor-type tyrosine-protein phosphatase F (Homo sapiens, UniProt P10586). The assay is described as follows: Inhibition of LAR.
Assay [5] concerns the target T1, Tyrosine-protein phosphatase non-receptor type 1. The assay is described as follows: Competitive inhibition of PTP1B mediated pNPP hydrolysis by Lineweaver-Burke plot analysis.
Assay [6] concerns the target T4, Tyrosine-protein phosphatase non-receptor type 11 (Homo sapiens, UniProt Q06124).
T4 sequence (Q06124 whole entry): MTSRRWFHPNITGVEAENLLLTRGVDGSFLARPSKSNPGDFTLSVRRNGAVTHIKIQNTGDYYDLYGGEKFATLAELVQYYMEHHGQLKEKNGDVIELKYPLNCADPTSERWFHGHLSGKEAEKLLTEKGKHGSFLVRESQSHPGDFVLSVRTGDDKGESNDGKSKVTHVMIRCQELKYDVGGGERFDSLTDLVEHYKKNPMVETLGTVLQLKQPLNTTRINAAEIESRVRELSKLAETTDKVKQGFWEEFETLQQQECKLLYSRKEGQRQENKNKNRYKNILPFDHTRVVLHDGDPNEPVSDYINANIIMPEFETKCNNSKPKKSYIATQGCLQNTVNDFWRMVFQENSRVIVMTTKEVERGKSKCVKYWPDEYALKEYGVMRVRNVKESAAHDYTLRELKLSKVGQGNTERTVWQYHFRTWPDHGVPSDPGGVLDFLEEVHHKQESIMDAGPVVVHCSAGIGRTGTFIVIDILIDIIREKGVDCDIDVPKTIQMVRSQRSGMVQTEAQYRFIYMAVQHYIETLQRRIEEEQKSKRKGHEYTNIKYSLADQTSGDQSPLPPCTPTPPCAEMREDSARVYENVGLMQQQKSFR
The assay is described as follows: Inhibition of SHP-2.

Assay [7] deals with T5, Tyrosine-protein phosphatase non-receptor type 2 (Homo sapiens, UniProt P17706).
T5 sequence (P17706 whole entry): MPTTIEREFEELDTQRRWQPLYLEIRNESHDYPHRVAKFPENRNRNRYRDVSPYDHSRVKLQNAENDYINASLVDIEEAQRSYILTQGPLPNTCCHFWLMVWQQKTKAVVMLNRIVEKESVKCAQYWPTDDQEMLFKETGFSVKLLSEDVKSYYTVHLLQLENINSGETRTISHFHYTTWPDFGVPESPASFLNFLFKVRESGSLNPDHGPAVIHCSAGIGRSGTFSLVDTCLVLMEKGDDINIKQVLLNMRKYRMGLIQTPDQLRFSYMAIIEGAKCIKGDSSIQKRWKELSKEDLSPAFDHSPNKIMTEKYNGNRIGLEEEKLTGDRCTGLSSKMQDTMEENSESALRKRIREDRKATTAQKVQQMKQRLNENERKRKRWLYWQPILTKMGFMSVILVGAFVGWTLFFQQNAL
The assay is described as follows: Inhibition of TCPTP.

Sequence of Receptor-type tyrosine-protein phosphatase F (P10586 whole entry): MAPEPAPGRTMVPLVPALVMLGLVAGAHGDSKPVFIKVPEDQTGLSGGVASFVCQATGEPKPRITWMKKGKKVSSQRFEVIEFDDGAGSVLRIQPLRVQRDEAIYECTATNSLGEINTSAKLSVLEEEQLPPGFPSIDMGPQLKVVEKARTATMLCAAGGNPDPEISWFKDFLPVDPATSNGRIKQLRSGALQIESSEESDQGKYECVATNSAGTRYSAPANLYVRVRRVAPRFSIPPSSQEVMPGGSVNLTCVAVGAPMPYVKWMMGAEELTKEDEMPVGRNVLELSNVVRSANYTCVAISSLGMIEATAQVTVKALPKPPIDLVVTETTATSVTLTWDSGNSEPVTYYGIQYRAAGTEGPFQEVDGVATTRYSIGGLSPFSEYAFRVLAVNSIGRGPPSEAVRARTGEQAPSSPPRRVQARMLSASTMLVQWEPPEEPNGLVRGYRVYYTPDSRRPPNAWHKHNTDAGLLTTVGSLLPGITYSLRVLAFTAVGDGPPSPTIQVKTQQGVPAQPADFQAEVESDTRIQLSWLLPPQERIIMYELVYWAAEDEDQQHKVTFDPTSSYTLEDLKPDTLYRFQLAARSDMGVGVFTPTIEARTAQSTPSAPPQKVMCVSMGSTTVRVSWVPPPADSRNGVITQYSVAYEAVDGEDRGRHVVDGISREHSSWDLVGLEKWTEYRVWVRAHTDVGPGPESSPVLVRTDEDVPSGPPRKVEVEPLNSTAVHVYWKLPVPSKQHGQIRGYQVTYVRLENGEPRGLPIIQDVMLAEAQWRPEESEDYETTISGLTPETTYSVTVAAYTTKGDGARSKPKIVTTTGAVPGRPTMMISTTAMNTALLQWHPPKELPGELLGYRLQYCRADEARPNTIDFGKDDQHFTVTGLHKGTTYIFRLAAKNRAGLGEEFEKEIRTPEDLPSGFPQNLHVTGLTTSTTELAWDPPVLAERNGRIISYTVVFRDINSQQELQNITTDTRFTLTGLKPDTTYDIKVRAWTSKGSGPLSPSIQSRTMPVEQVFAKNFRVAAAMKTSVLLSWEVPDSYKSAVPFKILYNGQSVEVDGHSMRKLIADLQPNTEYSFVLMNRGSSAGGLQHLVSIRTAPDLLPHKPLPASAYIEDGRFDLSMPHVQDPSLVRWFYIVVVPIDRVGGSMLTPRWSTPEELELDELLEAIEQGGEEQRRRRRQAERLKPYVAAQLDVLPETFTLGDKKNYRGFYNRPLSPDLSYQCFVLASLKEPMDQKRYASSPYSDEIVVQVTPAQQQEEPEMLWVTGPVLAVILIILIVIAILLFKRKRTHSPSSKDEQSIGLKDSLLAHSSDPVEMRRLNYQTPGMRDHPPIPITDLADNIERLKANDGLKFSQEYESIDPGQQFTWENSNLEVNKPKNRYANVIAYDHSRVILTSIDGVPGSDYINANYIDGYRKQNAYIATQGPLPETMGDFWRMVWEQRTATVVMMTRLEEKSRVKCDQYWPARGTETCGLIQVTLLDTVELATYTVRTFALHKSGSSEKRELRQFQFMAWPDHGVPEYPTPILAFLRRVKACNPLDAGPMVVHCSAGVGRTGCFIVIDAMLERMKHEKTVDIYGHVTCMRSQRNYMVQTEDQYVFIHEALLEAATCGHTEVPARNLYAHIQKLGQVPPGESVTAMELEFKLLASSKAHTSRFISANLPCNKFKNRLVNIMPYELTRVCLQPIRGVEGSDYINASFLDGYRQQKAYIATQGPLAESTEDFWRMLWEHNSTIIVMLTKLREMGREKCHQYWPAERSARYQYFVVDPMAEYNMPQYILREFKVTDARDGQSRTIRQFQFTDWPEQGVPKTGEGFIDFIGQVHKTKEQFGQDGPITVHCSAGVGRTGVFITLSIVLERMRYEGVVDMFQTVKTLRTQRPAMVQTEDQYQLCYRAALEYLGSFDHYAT

As for `CCCCCCCCCCCCCCCc1cc(O[C@@H]2O[C@H](CO)[C@@H](O)[C@H](O)[C@H]2O)cc(O)c1C(=O)Oc1cc(C)c(C(=O)OC)c(O)c1`, in assay [1] (read-out: IC50), the IC50 came to 17 µM.

Take `CCCCCCCCCCCCCCCc1cc(O)cc(O)c1C(=O)Oc1cc(C)c(C(=O)O)c(O)c1`: the IC50 in assay [1] (read-out: IC50) was 0.22 µM.

For the molecule `CCCCCCCCCCCCCCCc1cc(O[C@@H]2O[C@H](CO)[C@@H](O)[C@H](O)[C@H]2O)cc(O)c1C(=O)O`, the IC50 entry was “Dose-dependent effect” in assay [1] and 0.59 µM in assay [1] (read-out: IC50).

For the molecule `Cc1cc(O)cc(O)c1C(=O)O`, in assay [2], the inhibition stood at 45%.

With `CCCCCCCCCCCCCCCc1cc(O[C@@H]2O[C@H](CO)[C@@H](O)[C@H](O)[C@H]2O)cc(O)c1C(=O)Oc1cc(C)c(C(=O)O)c(O)c1` [AQUASTATIN A], the IC50 entry in assay [1] is “Dose-dependent effect”; in assay [1] (read-out: IC50), 0.19 µM; in assay [3] it was greater than 44 µM; in assay [4] it was greater than 44 µM; in assay [6], greater than 44 µM; in assay [7], 0.51 µM. Besides, in assay [5], the Ki turned out to be 0.1 µM.
